According to the supplement of paper PMC10307832:

How the values were obtained:
Assay in all cases: relative viability (nuclei count vs DMSO), 5 days (fraction); higher = more cells survive
[1] = compound: CC(C)N(CCCNC(=O)Nc1ccc(C(C)(C)C)cc1)C[C@H]1O[C@@H](n2ccc3c(N)ncnc32)[C@H](O)[C@@H]1O + Cc1nc(NC(=O)N2CCC[C@H]2C(N)=O)sc1-c1ccnc(C(C)(C)C(F)(F)F)c1 [Alpelisib] (partner 2 µM)
Method in brief: (§1)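 Medians of duplicate plates are given as relative viability. That measure is the nuclei count in treated wells divided by the count in vehicle wells. Counts were taken on 4× images of lung cancer cell lines in 1536-well plates, 5 days after pin-tool dosing the day after seeding with one drug alone or a fixed anchor-drug dose plus five library-drug doses (not always all listed) in √10 steps.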

[2] = compound: CC(C)N(CCCNC(=O)Nc1ccc(C(C)(C)C)cc1)C[C@H]1O[C@@H](n2ccc3c(N)ncnc32)[C@H](O)[C@@H]1O + Nc1ncn([C@H]2C[C@H](O)[C@@H](CO)O2)c(=O)n1 [Decitabine] (partner 2 µM)
Method in brief: as §1

[3] = compound: CC(C)N(CCCNC(=O)Nc1ccc(C(C)(C)C)cc1)C[C@H]1O[C@@H](n2ccc3c(N)ncnc32)[C@H](O)[C@@H]1O + CCNC(=O)c1noc(-c2cc(C(C)C)c(O)cc2O)c1-c1ccc(CN2CCOCC2)cc1 [Luminespib] (partner 0.01 µM)
Method in brief: as §1

[4] = compound: CC(C)=CC[C@@H](O)C1=CC(=O)c2c(O)ccc(O)c2C1=O [Shikonin] + Cc1nc(Nc2ncc(C(=O)Nc3c(C)cccc3Cl)s2)cc(N2CCN(CCO)CC2)n1 [Dasatinib] (partner 0.075 µM)
Method in brief: as §1

Q: With UMC-11 as the cell line, how does the relative viability ([1]; first compound 0.08 µM) read?
A: Its relative viability is 0.957.

Q: And the relative viability ([1]; first compound 0.253 µM)?
A: Its relative viability is 0.891.

Q: And the relative viability ([1]; first compound 0.8 µM)?
A: Its relative viability is 1.09.

Q: And the relative viability ([1]; first compound 2.53 µM)?
A: The relative viability was 0.958.

Q: And the relative viability ([1]; first compound 8 µM)?
A: The relative viability was 0.964.

Q: And the relative viability ([2]; first compound 0.08 µM)?
A: Its relative viability is 0.584.

Q: And the relative viability ([2]; first compound 0.253 µM)?
A: The relative viability was 0.621.

Q: What about the relative viability ([2]; first compound 0.8 µM) of the same cell line?
A: The relative viability was 0.488.

Q: And the relative viability ([2]; first compound 2.53 µM)?
A: The relative viability was 0.534.

Q: And the relative viability ([2]; first compound 8 µM)?
A: Its relative viability is 0.585.

Q: What about the relative viability ([3]; first compound 0.08 µM) of the same cell line?
A: The relative viability was 1.01.

Q: What about the relative viability ([3]; first compound 0.253 µM) of the same cell line?
A: The relative viability was 0.992.

Q: What about the relative viability ([3]; first compound 0.8 µM) of the same cell line?
A: Its relative viability is 0.915.

Q: What about the relative viability ([3]; first compound 2.53 µM) of the same cell line?
A: Its relative viability is 1.

Q: What about the relative viability ([3]; first compound 8 µM) of the same cell line?
A: The relative viability was 0.977.

Q: What about the relative viability ([4]; first compound 0.01 µM) of the same cell line?
A: The relative viability was 0.476.

Q: What about the relative viability ([4]; first compound 0.1 µM) of the same cell line?
A: Its relative viability is 0.49.

Q: And the relative viability ([4]; first compound 0.3162 µM)?
A: Its relative viability is 0.459.

Q: What about the relative viability ([4]; first compound 1 µM) of the same cell line?
A: Its relative viability is 0.503.
